Measurements as given in patent US20240398783A1, “Compounds and Pharmaceutical Compositions Comprising Inhibitors of Amyloid Peptide Interactions with Glycosaminoglycans, Methods of Treatment and Use Thereof” (Gismo Therapeutics, Inc., priority 2021, published 2024).
Counter-ions that a name gives are not always drawn.

What was measured:
[1] = molecular target: T1, Amyloid-beta(1-42) oligomer binding to purified human brain membranes (Homo sapiens, UniProt P05067); test: Inhibition of Amyloid-beta(1-42) oligomer binding to purified human brain cell membranes (ELISA); settings: Abeta(1-42) oligomers, read-out: Abeta42/Membrane Activity (IC-50)
T1 construct: Beta-amyloid (1-42) was purchased from rPeptide (Cat. No. A1163); purchased rPeptide A1163
Protocol: (§1) Purified human brain cell membranes were prepared by differential centrifugation as follows. Five grams of frozen human brain postmortem tissue (obtained from University of Kentucky Alzheimer's Disease Center Tissue Bank) was homogenized in 50 ml HEPES-Buffered sucrose (0.32M sucrose, 4 mM HEPES pH7.4, protease inhibitors) with a motor driven glass-teflon homogenizer. After removing nuclear and cell debris by centrifugation of homogenates at 1,000×g for 10 min at 4 degree Celsius, post-nuclear supernatant was centrifuged at 100,000×g for 30 minutes to yield the crude membrane pellet. Crude membrane pellet was re-suspended in 0.32M sucrose, then centrifuged again at 100,000×g for 30 minutes to yield washed membrane pellet. Membrane pellet was resuspended in sterile PBS (pH7.4), quickly frozen, and kept in aliquots at −80 degrees Celsius. This preparation contains human brain cell membranes. Protein concentration was measured with BCA protein assay kit (Pierce Cat. No. 23227). Purified brain membranes were diluted to 0.01 mg/ml in PBS (pH 7.4) and then added to a 96 well polystyrene ELISA plate (NUNC Cat. No. 449824; 100 μl per well). Plates were incubated Over Night (ON) at 4 degrees Celsius. Following the incubation, the plate was washed consecutively, by immersion, with de-ionized water and PBS (pH 7.4). The ELISA plate was then blocked with nonfat milk (2%, 200 μl per well) for 2 hours at Room Temperature (RT). Following blocking, the plate was washed with de-ionized water then PBS (pH 7.4). GBAPs were dissolved and diluted in PBS (pH 6.5, supplemented with 0.1% BSA) at desired concentrations, added to the ELISA plates coated with brain membranes (100 μl per well) and incubated for 2 hours at RT with gentle shaking. Following incubation, the plate was washed with de-ionized water and three times with PBS (pH 6.5) plus Tween. Bound GBAP was detected by a monoclonal antibody specific for that GBAP, followed by incubation with secondary antibody conjugated to horseradish peroxidase (HRP). Antibody was diluted in PBS (pH6.5 supplemented with 1% BSA). Following each incubation with antibody, the plate was washed with de-ionized water and three times with PBS (pH6.5) wash buffer containing 0.1% Tween. The peroxidase substrate chromogen, TMB (Dako Cat. No. S1599) was added (100 μl per well) to the ELISA plate and incubated at room temperature. After 5 minutes ELISA Stop Solution (hydrochloric acid 1N, sulfuric acid 3N) was added (100 μl per well) to stop the peroxidase catalyzed colorimetric reaction. The Optical Density of the samples was measured at 450 nm using an ELISA plate reader (BioTek Synergy H1). Following color development, the % inhibition compared to control was determined. IC-50s were calculated using GraphPad Prism software.
(§2) The assay was performed as described in Example 49, with the following modifications. Following to coating the plates with purified human brain cell membranes, plates were washed as described. The compounds were dissolved in DMSO at 10 mM final concentration and further diluted prior to assay. DMSO concentration in the screening well was up to 2%. Individual compounds were co-incubated with Beta-amyloid peptides on plates coated with purified human brain membranes. Beta-amyloid (1-42) oligomers were prepared as described in Example 2. Beta-amyloid (1-40) from rPeptide (Cat No. A1153) was dissolved in DMSO, quickly frozen and kept in aliquots at −80 degrees Celsius. Beta-amyloid (1-42) oligomers or Beta-amyloid (1-40) dissolved in PBS (pH 6.5, supplemented with BSA, 0.1%) were added to the ELISA plate (100 μl per well) and incubated for 2 hours at RT with gentle shaking. Following the incubation, the plate was washed with de-ionized water and three times with PBS (pH 6.5) plus Tween. […]

[2] = molecular target: T2, Amyloid-beta(1-40) binding to purified human brain membranes (Homo sapiens, UniProt P05067); test: Inhibition of Amyloid-beta(1-40) binding to purified human brain cell membranes (ELISA); settings: Abeta(1-40), read-out: Abeta40/Membrane Activity (IC-50)
T2 construct: Beta-amyloid (1-40) from rPeptide (Cat No. A1153) was dissolved in DMSO; purchased rPeptide A1153
Protocol: as §1, §2

T1 sequence (P05067 672-713): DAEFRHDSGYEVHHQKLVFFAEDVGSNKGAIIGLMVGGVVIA
T2 sequence (P05067 672-711): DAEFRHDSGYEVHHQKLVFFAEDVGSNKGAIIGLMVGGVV

## CC(=NNc1ccnc2cc(Cl)ccc12)c1ccc(-n2ccnc2)cc1 [Compound 36, 4-(2-(1-(4-(1H-imidazol-1-yl)phenyl)ethylidene)hydrazineyl)-7-chloroquinoline phosphate]
[1]
  IC50: 18.7 µM

## CCN(CC)Cc1cccc(Nc2ccnc3cc(Cl)ccc23)c1 [Compound 42, 7-chloro-N-(3-((diethylamino)methyl)phenyl)quinolin-4-amine]
[2]
  IC50: 6.56 µM

## C/C(=N\Nc1ncnc2cc(Cl)ccc12)c1ccc(-n2cc(C)nc2C)nc1 [Compound 18, (E)-7-chloro-4-(2-(1-(6-(2,4-dimethyl-1H-imidazol-1-yl)pyridin-3-yl)ethylidene)hydrazineyl)quinazoline phosphoric acid salt]
[2]
  IC50: 17.3 µM

## C/C(=N\Nc1ncnc2cc(Cl)ccc12)c1ccc(-n2cc(C)nc2C)nc1 [Compound 27, (E)-7-chloro-4-(2-(1-(6-(2,4-dimethyl-1H-imidazol-1-yl)pyridin-3-yl)ethylidene)hydrazineyl)quinazoline hydrochloride]
[1]
  IC50: 3.97 µM
[2]
  IC50: 2.23 µM

## C/C(=N\Nc1ncnc2cc(F)ccc12)c1ccc(-n2cc[n+](C)c2)nc1 [Compound 26, (E)-1-(5-(1-(2-(7-fluoroquinazolin-4-yl)hydrazineylidene)ethyl)pyridin-2-yl)-3-methyl-1H-imidazol-3-ium phosphoric acid salt]
[2]
  IC50: 1.51 µM

## Clc1ccc2c(Nc3ccc(-n4cncn4)nc3)ccnc2c1 [Compound 44, N-(6-(1H-1,2,4-triazol-1-yl)pyridin-3-yl)-7-chloroquinolin-4-amine]
[2]
  IC50: 43 µM

## C/C(=N\Nc1ncnc2cc(F)ccc12)c1ccc(-n2cnc(C)c2C)nc1 [Compound 21, (E)-4-(2-(1-(6-(4,5-dimethyl-1H-imidazol-1-yl)pyridin-3-yl)ethylidene)hydrazineyl)-7-fluoroquinazoline]
[1]
  IC50: 3.3 µM
[2]
  IC50: 5.95 µM

## CC(=NNc1ccnc2cc(Cl)ccc12)c1ccc(-n2cnc(C)c2C)nc1 [Compound 22, 7-chloro-4-(2-(1-(6-(4,5-dimethyl-1H-imidazol-1-yl)pyridin-3-yl)ethylidene)hydrazineyl)quinoline]
[1]
  IC50: 3.56 µM
[2]
  IC50: 1.78 µM

## Cc1ncn(-c2ccc(Nc3ncnc4cc(Cl)ccc34)cn2)c1C [Compound 25, 7-chloro-N-(6-(4,5-dimethyl-1H-imidazol-1-yl)pyridin-3-yl)quinazolin-4-amine]
[1]
  IC50: 7.01 µM
[2]
  IC50: 4.68 µM

## Fc1cc(/C=N/Nc2ccnc3cc(Cl)ccc23)ccc1-n1ccnc1 [Compound 35, (E)-7-chloro-4-(2-(3-fluoro-4-(1H-imidazol-1-yl)benzylidene)hydrazineyl)quinoline hydrochloride]
[1]
  IC50: 10.4 µM
[2]
  IC50: 41.5 µM

## Clc1ccc2c(Nc3ccc(-n4cncn4)nc3)ncnc2c1 [Compound 34, N-(6-(1H-1,2,4-triazol-1-yl)pyridin-3-yl)-7-chloroquinazolin-4-amine phosphoric acid salt]
[1]
  IC50: 10.4 µM

## C/C(=N\Nc1ncnc2cc(Cl)ccc12)c1ccc(-n2cc[n+](C)c2)nc1 [Compound 17, (E)-1-(5-(1-(2-(7-chloroquinazolin-4-yl)hydrazineylidene)ethyl)pyridin-2-yl)-3-methyl-1H-imidazol-3-ium iodide phosphoric acid salt]
[2]
  IC50: 27.9 µM

## C/C(=N\Nc1ncnc2ccccc12)c1ccc(-n2cc(C)nc2C)nc1 [Compound 19, (E)-4-(2-(1-(6-(2,4-dimethyl-1H-imidazol-1-yl)pyridin-3-yl)ethylidene)hydrazineyl)quinazoline]
[2]
  IC50: 3.09 µM

## CC(=NNc1ncnc2cc(Cl)ccc12)c1ccnc(-n2cnc(C)c2C)c1 [Compound 28, 7-chloro-4-(2-(1-(2-(4,5-dimethyl-1H-imidazol-1-yl)pyridin-4-yl)ethylidene)hydrazineyl)quinazoline]
[2]
  IC50: 3.71 µM

## Cc1ncn(-c2ccc(/C=N\Nc3ncnc4cc(Cl)ccc34)cn2)c1C [Compound 15, 7-chloro-4-(2-((6-(4,5-dimethyl-1H-imidazol-1-yl)pyridin-3-yl)methylene)hydrazineyl)quinazoline hydrochloride]
[1]
  IC50: 7.05 µM
